Values of other authors in US7030094B2, “Immunostimulant compositions comprising an aminoalkyl glucosaminide phosphate and QS-21” (priority 2002, dated 2006).
Like-named read-outs stand apart in the source and are kept apart here.

In the case of QS-21, the “concentration causing hemolysis of sheep red blood cells” value (sheep red blood cells) is given as no less than 25000 ng/mL, the critical micellar concentration (in phosphate buffered saline) is given as ~0.02 % (w/v) and the critical micellar concentration (in water) is given as “about 0.03 % (w/v)”.
